Reference: patent US20050053668A1, “Skeletally targeted nanoparticles” (Southwest Research Institute, priority 2003, published 2005)
Values belong to the molecule of their own block, whether it stands above or below them.

Experiments:
panel of tumor cells = conditions: cited from earlier work
myeloma cell = conditions: in vitro; cited from earlier work
[1] = cited from earlier work
[2] = type: physicochemical
Protocol: Lovastatin was encapsulated in MBP-lipid conjugate micelles at ratios ranging from about 1:1 to 1:50 mol:mol lovastatin:lipid using the phase separation technique. All preparations initially produced clear, colorless solutions, indicating complete solubilization of lovastatin by the lipid. However, over time, usually within about 24 hours, needle-like crystals were observed on the surface of the fluid. […] The crystals were confirmed to be lovastatin by HPLC analysis.

unloaded bones = conditions: infusion; cited from earlier work
hindlimb unloaded rats = conditions: cited from earlier work

Molecule: CC(C)C[C@H](NC(=O)[C@H](Cc1ccccc1)NC(=O)c1cnccn1)B(O)O [PS-341]
cytotoxicity (panel of tumor cells): cytotoxic | inhibition of myeloma cell growth and survival (myeloma cell): potent inhibitor | side-effects in clinical use [1]: thrombocytopenia, peripheral neuropathy, hypotension, and, in severe cases, cardiovascular toxicity

amount of stabilized lovastatin after ageing [2]: increased slightly | lovastatin stabilized in micelles [2]: about 0.03 μg/μg of lipid | lovastatin stabilized in micelles, molar ratio [2]: ~1:5 mol:mol lovastatin:lipid | lovastatin encapsulated before free drug precipitates ([2]; micelles of MBP-based ligand-phospholipid conjugate, FIG. 9): about 0.03 μg of lovastatin/μg of lipid | time until needle-like lovastatin crystals were observed ([2]; preparations 1:1 to 1:50 mol:mol lovastatin:lipid): ≤ 24 h
Molecule: CC[C@H](C)C(=O)O[C@H]1C[C@@H](C)C=C2C=C[C@H](C)[C@H](CC[C@@H]3C[C@@H](O)CC(=O)O3)[C@H]21 [lovastatin]

Molecule: IGF-1: insulin-like growth factor, regulates bone formation
dose required to demonstrate any protective effect against unloading (unloaded bones): 2 mg/kg/day

Molecule: TGF-β
effect on bone formation in control animals (hindlimb unloaded rats; infusion 2 μg/kg/day, control animals): has no effect on bone formation | effect on unloading-induced bone changes (hindlimb unloaded rats; infusion 2 μg/kg/day, hindlimb unloading in rats): corrects the decrease in bone mass, calcium content, osteoblast number and mineralization rate | effect on indices of bone resorption (hindlimb unloaded rats; infusion, normal and unloaded rats): decreases the indices of bone resorption
